Measured values published in US20080200403A1, “9A-Carbamoyl and Thiocarbamoyl Azalides with Anti-Inflammatory Activity” (GLAXOSMITHKLINE, priority 2005, published 2008).
Read-outs that look alike come from different tables or passages of the source.

Key:
Type in all cases: cell-based
[1] = tested on: IL-8; assay: Inhibition of IL-8 production by stimulated human peripheral blood leukocytes in vitro; conditions: PBL; for inhibition at 10 µM / inhibition at 50 µM: Homo sapiens, Leukocyte, read-out: Percentage of inhibition of IL-8 production
Protocol: (§1) Test substances used in in vitro experiments were dissolved in dimethyl sulfoxide (DMSO) (Kemika, Croatia) at concentrations of 50 mM and 10 mM, and were further diluted to final concentrations of 50 μM and 10 μM in 1 mL Dulbecco's modified Eagle medium (DMEM) supplemented with 1% heat inactivated fetal bovine serum (FBS), 1% L-glutamine, 50 U/ml penicillin, 50 μg/ml streptomycin and 2.5 μg/mL Fungizone (amphotericin B). Media and all media supplements were purchased from Gibco, Australia, except the FBS was purchased from Sigma, USA.
(§2) Peripheral blood leukocytes (PBL) were obtained from venous blood of healthy volunteers by sedimentation on 2% dextran T-500 (Amersham Biosciences, USA) and subsequent centrifugations of leukocyte rich plasma.
(§3) Peripheral blood leukocytes (PBL), isolated as described above, were seeded in a 48-well plate at a concentration of 3 to 5×10^6 cell per well in culture medium consisting of RPMI 1640 medium (Institute of Immunology, Croatia) supplemented with 10% heat-inactivated fetal calf serum (FCS, Biowhittaker, USA), 100 U/ml penicillin (Gibco, Australia), 100 μg/ml streptomycin (Gibco, Australia) and 2 mM L-glutamine (Gibco, Australia), and preincubated with the test compounds for 2 h at 37° C., in an atmosphere of 5% CO2, and 90% humidity. Then, stimuli (Sigma, USA) were added to a final concentration of 2 μg/mL lipopolysaccharide (LPS), 1 μg/mL phorbol 12-myristate 13-acetate (PMA) or 120 μg/mL zymosan. Samples were incubated overnight under conditions described above. At the end of incubation, the supernatants were transferred to eppendorf tubes and centrifuged for 10 min at 1500×g. Concentrations of human TNF-α, IL-1β, IL-6 and IL-8 were determined in cell supernatants by sandwich ELISA, using capture and detection antibodies (R&D Systems, Minneapolis, Minn.) according to the manufacturer's recommendations.
(§4) Inhibition (as percentage) was calculated using the following formula: % inhibition=(1−concentration of cytokines in sample/concentration of cytokines in positive control)×100. The positive control refers to stimulated samples, not treated with substances.

[2] = tested on: IL-1α; assay: Inhibition of IL-1 production by stimulated human peripheral blood leukocytes in vitro; conditions: PBL; for inhibition at 10 µM / inhibition at 50 µM: Homo sapiens, Leukocyte, read-out: Percentage of inhibition of IL-1α production
[3] = tested on: IL-6; assay: Inhibition of IL-6 production by stimulated human peripheral blood leukocytes in vitro; conditions: PBL; for inhibition at 10 µM / inhibition at 50 µM: Homo sapiens, Leukocyte, read-out: Percentage of inhibition of IL-6 production
Protocol: as §1, §2, §3, §4

[4] = tested on: human peripheral blood mononuclear cells (PBMC); assay: Human T-cell proliferation in vitro (3H-thymidine incorporation); conditions: Homo sapiens, PBMC, read-out: Percentage of inhibition of proliferation of stimulated PBMC; for inhibition at 10 µM: compound 10 μM; for inhibition at 50 µM: compound 50 μM
Protocol: Influence of substances at two different concentrations (50 μM and 10 μM) on cell proliferation of human peripheral blood mononuclear cells (PBMC) was assessed.
Heparinized peripheral blood was obtained from healthy donors, and PBMC were isolated by Histopaque 1077 (Sigma, USA) density centrifugation at 400×g for 30 minutes. 5×10^4 cells/well were cultured for 3 days in the RPMI medium as described above, in the presence (positive control) or absence (negative control) of stimulators [PHA (2.5 μg/mL) (Sigma, USA), or both PMA (10 ng/mL) (Sigma, USA) and ionomycin (500 ng/mL) (Calbiochem, USA)], and in the presence of the test compounds, at 37° C. in an atmosphere of 5% CO2 and 90% humidity. The cells were pulsed with 1 μCi of ^3H-thymidine (Amersham, USA) per well during the last 18 h of the culture, and were harvested on the 96-well filter (Packard Bioscience, USA) using a multiple cell harvester (Packard, USA). The incorporation of ^3H-thymidine in activated cells were measured using TopCount NXT (Packard, USA).
Inhibition (as percentage) was calculated using the following formula: % inhibition=(1−(^3H)thymidine incorporation expressed in counts per minute (cpm) in sample/(^3H)thymidine incorporation expressed in cpm in positive control)×100
where positive control refers to stimulated samples, not treated with substances.

[5] = tested on: TNF-α; assay: Inhibition of TNF-α production by stimulated human peripheral blood leukocytes in vitro; conditions: PBL; for inhibition at 10 µM / inhibition at 50 µM: Homo sapiens, Leukocyte, read-out: Percentage of inhibition of TNF-α production
Protocol: as §1, §2, §3, §4

[6] = zymosan stimulated, compound 10 μM
[7] = zymosan stimulated, compound 50 μM

Structure (SMILES): CC[C@H]1OC(=O)[C@H](C)[C@@H](O[C@H]2C[C@@](C)(OC)[C@@H](O)[C@H](C)O2)[C@H](C)[C@@H](O[C@@H]2O[C@H](C)C[C@H](N(C)C)[C@H]2O)[C@](C)(O)C[C@@H](C)CN(C(=S)Nc2cccc(Br)c2)[C@H](C)[C@@H](O)[C@]1(C)O [Compound 6]
- inhibition at 10 µM ([1]; LPS stimulated, compound 10 μM): 43%
- inhibition at 50 µM ([1]; LPS stimulated, compound 50 μM): 100%
- inhibition at 10 µM ([1]; PMA stimulated, compound 10 μM): 23%
- inhibition at 50 µM ([1]; PMA stimulated, compound 50 μM): 100%
- inhibition at 10 µM [1, 6]: 41%
- inhibition at 50 µM [1, 7]: 71%
- inhibition at 10 µM ([2]; LPS stimulated, compound 10 μM): 64%
- inhibition at 50 µM ([2]; LPS stimulated, compound 50 μM): 98%
- inhibition at 10 µM ([2]; PMA stimulated, compound 10 μM): 79%
- inhibition at 50 µM ([2]; PMA stimulated, compound 50 μM): 100%
- inhibition at 10 µM [2, 6]: 67%
- inhibition at 50 µM [2, 7]: 89%
- inhibition at 10 µM ([3]; LPS stimulated, compound 10 μM): 59%
- inhibition at 50 µM ([3]; LPS stimulated, compound 50 μM): 100%
- inhibition at 10 µM [3, 6]: 6%
- inhibition at 50 µM [3, 7]: 100%
- inhibition at 10 µM ([4]; PHA stimulated): 0%
- inhibition at 50 µM ([4]; PHA stimulated): 100%
- inhibition at 10 µM ([4]; PMA + ionomycin stimulated): 0%
- inhibition at 50 µM ([4]; PMA + ionomycin stimulated): 100%
- inhibition at 10 µM ([5]; LPS stimulated, compound 10 μM): 74%
- inhibition at 50 µM ([5]; LPS stimulated, compound 50 μM): 100%
- inhibition at 10 µM ([5]; PMA stimulated, compound 10 μM): 73%
- inhibition at 50 µM ([5]; PMA stimulated, compound 50 μM): 100%
- inhibition at 10 µM [5, 6]: 36%
- inhibition at 50 µM [5, 7]: 98%

Structure (SMILES): CC[C@H]1OC(=O)[C@H](C)[C@@H](O[C@H]2C[C@@](C)(OC)[C@@H](O)[C@H](C)O2)[C@H](C)[C@@H](O[C@@H]2O[C@H](C)C[C@H](N(C)C)[C@H]2O)[C@](C)(O)C[C@@H](C)CN(C(=S)Nc2ccc(Br)cc2)[C@H](C)[C@@H](O)[C@]1(C)O [Compound 7]
- Percentage of inhibition of IL-8 production ([1]; LPS stimulated, compound 10 μM): 39%
- Percentage of inhibition of IL-8 production ([1]; LPS stimulated, compound 50 μM): 100%
- Percentage of inhibition of IL-8 production ([1]; PMA stimulated, compound 10 μM): 40%
- Percentage of inhibition of IL-8 production ([1]; PMA stimulated, compound 50 μM): 100%
- Percentage of inhibition of IL-8 production [1, 6]: 61%
- Percentage of inhibition of IL-8 production [1, 7]: 99%
- Percentage of inhibition of IL-1α production ([2]; LPS stimulated, compound 10 μM): 71%
- Percentage of inhibition of IL-1α production ([2]; LPS stimulated, compound 50 μM): 89%
- Percentage of inhibition of IL-1α production ([2]; PMA stimulated, compound 10 μM): 0%
- Percentage of inhibition of IL-1α production ([2]; PMA stimulated, compound 50 μM): 79%
- Percentage of inhibition of IL-1α production [2, 6]: 96%
- Percentage of inhibition of IL-1α production [2, 7]: 83%
- Percentage of inhibition of IL-6 production ([3]; LPS stimulated, compound 10 μM): 54%
- Percentage of inhibition of IL-6 production ([3]; LPS stimulated, compound 50 μM): 100%
- Percentage of inhibition of IL-6 production ([3]; PMA stimulated, compound 10 μM): 65%
- Percentage of inhibition of IL-6 production ([3]; PMA stimulated, compound 50 μM): 90%
- Percentage of inhibition of IL-6 production [3, 6]: 73%
- Percentage of inhibition of IL-6 production [3, 7]: 100%
- Percentage of inhibition of TNF-α production ([5]; LPS stimulated, compound 10 μM): 0%
- Percentage of inhibition of TNF-α production ([5]; LPS stimulated, compound 50 μM): 100%
- Percentage of inhibition of TNF-α production ([5]; PMA stimulated, compound 10 μM): 95%
- Percentage of inhibition of TNF-α production ([5]; PMA stimulated, compound 50 μM): 100%
- Percentage of inhibition of TNF-α production [5, 6]: 69%
- Percentage of inhibition of TNF-α production [5, 7]: 100%

Structure (SMILES): CC[C@H]1OC(=O)[C@H](C)[C@@H](O[C@H]2C[C@@](C)(OC)[C@@H](O)[C@H](C)O2)[C@H](C)[C@@H](O[C@@H]2O[C@H](C)C[C@H](N(C)C)[C@H]2O)[C@](C)(O)C[C@@H](C)CN(C(=O)Nc2ccc(Cl)c(C(F)(F)F)c2)[C@H](C)[C@@H](O)[C@]1(C)O [Compound 10]
- Percentage of inhibition of IL-8 production ([1]; LPS stimulated, compound 10 μM): 55%
- Percentage of inhibition of IL-8 production ([1]; LPS stimulated, compound 50 μM): 93%
- Percentage of inhibition of IL-8 production ([1]; PMA stimulated, compound 10 μM): 75%
- Percentage of inhibition of IL-8 production ([1]; PMA stimulated, compound 50 μM): 100%
- Percentage of inhibition of IL-8 production [1, 6]: 82%
- Percentage of inhibition of IL-8 production [1, 7]: 97%
- Percentage of inhibition of IL-1α production ([2]; LPS stimulated, compound 10 μM): 0%
- Percentage of inhibition of IL-1α production ([2]; LPS stimulated, compound 50 μM): 100%
- Percentage of inhibition of IL-1α production ([2]; PMA stimulated, compound 10 μM): 0%
- Percentage of inhibition of IL-1α production ([2]; PMA stimulated, compound 50 μM): 100%
- Percentage of inhibition of IL-1α production [2, 6]: 0%
- Percentage of inhibition of IL-1α production [2, 7]: 96%
- Percentage of inhibition of IL-6 production ([3]; LPS stimulated, compound 10 μM): 63%
- Percentage of inhibition of IL-6 production ([3]; LPS stimulated, compound 50 μM): 100%
- Percentage of inhibition of IL-6 production ([3]; PMA stimulated, compound 10 μM): 40%
- Percentage of inhibition of IL-6 production ([3]; PMA stimulated, compound 50 μM): 100%
- Percentage of inhibition of IL-6 production [3, 6]: 76%
- Percentage of inhibition of IL-6 production [3, 7]: 100%
- Percentage of inhibition of TNF-α production ([5]; LPS stimulated, compound 10 μM): 32%
- Percentage of inhibition of TNF-α production ([5]; LPS stimulated, compound 50 μM): 99%
- Percentage of inhibition of TNF-α production ([5]; PMA stimulated, compound 10 μM): 0%
- Percentage of inhibition of TNF-α production ([5]; PMA stimulated, compound 50 μM): 100%
- Percentage of inhibition of TNF-α production [5, 6]: 69%
- Percentage of inhibition of TNF-α production [5, 7]: 99%

Structure (SMILES): CC[C@H]1OC(=O)[C@H](C)C2O[C@@](C)(C[C@@H](C)CN(C(=O)NCc3ccccc3)[C@H](C)[C@@H](O)[C@]1(C)O)[C@H](O[C@@H]1O[C@H](C)C[C@H](N(C)C)[C@H]1O)[C@H]2C [Compound 11]
- Percentage of inhibition of IL-8 production ([1]; LPS stimulated, compound 10 μM): 0%
- Percentage of inhibition of IL-8 production ([1]; LPS stimulated, compound 50 μM): 52%
- Percentage of inhibition of IL-8 production [1, 6]: 23%
- Percentage of inhibition of IL-8 production [1, 7]: 75%
- Percentage of inhibition of IL-1α production ([2]; LPS stimulated, compound 10 μM): 48%
- Percentage of inhibition of IL-1α production ([2]; LPS stimulated, compound 50 μM): 38%
- Percentage of inhibition of IL-1α production [2, 6]: 85%
- Percentage of inhibition of IL-1α production [2, 7]: 77%
- Percentage of inhibition of IL-6 production ([3]; LPS stimulated, compound 10 μM): 0%
- Percentage of inhibition of IL-6 production ([3]; LPS stimulated, compound 50 μM): 66%
- Percentage of inhibition of IL-6 production [3, 6]: 72%
- Percentage of inhibition of IL-6 production [3, 7]: 100%
- Percentage of inhibition of TNF-α production ([5]; LPS stimulated, compound 10 μM): 0%
- Percentage of inhibition of TNF-α production ([5]; LPS stimulated, compound 50 μM): 51%
- Percentage of inhibition of TNF-α production [5, 6]: 13%
- Percentage of inhibition of TNF-α production [5, 7]: 88%
